Patent publication US11224601B1, “Compounds that inhibits MCL-1 protein” (priority 2017, dated 2022)

Tests used:
[1] = target: recombinant human Mcl-1 (Mcl-1/Bim interaction) (Homo sapiens (Human), UniProt Q07820); assay: biochemical; type: binding; details: cell free Mcl-1:Bim TR-FRET; read-out: Mcl-1 HTRF IC50
Method: Cell free Mcl-1:Bim Affinity Assay (Mcl-1 HTRF)
The inhibition of the Mcl-1/Bim interaction was measured using a time-resolved fluorescence resonance energy transfer (TR-FRET) assay. The recombinant human Mcl-1 (C-terminally 6×His tagged Mcl-1 containing residues 171-327) was generated at Amgen Inc (Thousand Oaks, Calif.). A biotinylated peptide derived from human Bim (residues 51-76) was purchased from CPC Scientific (San Jose, Calif.). The TR-FRET assay was conducted in a 384-well white OptiPlate™ (PerkinElmer, Waltham, Mass.) in a total volume of 40 μL. The reaction mixture contained 0.1 nM Mcl-1(171-327), 0.05 nM biotin-Bim(51-76), 0.05 nM LANCE® Eu-W1024 Anti-6×His (PerkinElmer), 0.072 nM Streptavidin-Xlent (Cisbio, Bedford, Mass.), and serially diluted test compounds in the binding buffer of 20 mM Hepes, pH 7.5, 150 mM NaCl, 0.016 mM Brij® 35, and 1 mM dithiothreitol. Test compounds were pre-incubated with Mcl-1(171-327) and biotin-Bim (51-76) for 60 min before addition of the detection mixture (LANCE® Eu-W1024 Anti-6×His and Streptavidin-Xlent). The reaction plates were further incubated overnight and then were read on an Envision® multimode reader (PerkinElmer). Fluorescence signals were measured at 620 nm (40-nm bandwidth) and 665 nm (7.5-nm bandwidth) with a 60 μs delay after excitation at 320 nm (75-nm bandwidth). The signal ratio at 665/620 nm corresponded to the Mcl-1/Bim interaction and was used in all data analyses. The IC50 values of test compounds were determined from duplicate data by analyzing competition curves using a four-parameter sigmoidal model in GraphPad Prism (GraphPad Software, San Diego, Calif.) or in Genedata Screener® (Genedata, Basel, Switzerland).

[2] = system: OPM-2 human multiple myeloma cell line; assay: Cell Viability Assay (OPM-2 10 FBS), CellTiter-Glo; type: cell-based; details: Homo sapiens, OPM-2, 16 h, read-out: OPM-2 10% FBS IC50 IP (μM), OPM-2 cells, 10% FBS, 16 h, CellTiter-Glo
Method: Cell Viability Assay (OPM-2 10 FBS)
The human multiple myeloma cell line, OPM-2, was cultured in complete growth medium containing RPMI 1640 and 10% fetal bovine serum (FBS). Cells were seeded into 384-well plates at 3000 cells/well density in complete growth medium containing 10% FBS, and incubated for 16 h with serially diluted test compounds in a 37° C. incubator with 5% CO2. Cell viability was tested using CellTiter-Glo® assay (Promega, Madison, Wis.) according to the manufacturer recommendations. Luminescence was determined using an EnVision® Multilabel plate reader 25 min after the addition of detection reagent. IC50 values were then calculated with Xlfit using a logistical 4-parameter fit model in GraphPad Prism (GraphPad Software, San Diego, Calif.) or in Genedata Screener® (Genedata, Basel, Switzerland).

Sequence of recombinant human Mcl-1 (Mcl-1/Bim interaction) (Q07820 171-327): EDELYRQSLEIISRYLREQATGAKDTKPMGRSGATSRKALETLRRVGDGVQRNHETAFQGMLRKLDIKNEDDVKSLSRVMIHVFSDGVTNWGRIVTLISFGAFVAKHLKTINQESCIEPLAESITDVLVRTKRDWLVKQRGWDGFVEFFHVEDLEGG

| Structure (SMILES) | IC50 [1] [nM] | IC50 [2] [µM] |
| --- | --- | --- |
| CO[C@]1(CN2CCN3CCCC[C@@H]3C2)/C=C/C[C@H](C)[C@@H](CCO[Si](c2ccccc2)(c2ccccc2)C(C)(C)C)S(=O)(=O)NC(=O)c2ccc3c(c2)N(C[C@@H]2CC[C@H]21)C[C@@]1(CCCc2cc(Cl)ccc21)CO3 [Example 359, (1S,3′R,6′R,7′R,8′E,11′S,12′R)-6-chloro-7′-methoxy-11′-methyl-12′-(2-(((2-methyl-2-propanyl)(diphenyl)silyl)oxy)ethyl)-7′-((9aR)-octahydro-2H-pyrido[1,2-a]pyrazin-2-ylmethyl)-3,4-dihydro-2H,15′H-spiro[naphthalene-1,22′-[20]oxa[13]thia[1,14]diazatetracyclo[14.7.2.0˜3,6˜.0˜19,24˜]pentacosa[8,16,18,24]tetraen]-15′-one 13′,13′-dioxide] | 2.08 | > 33.3 |
| CO[C@@]1(CN2CCN3CCOC[C@@H]3C2)/C=C/C[C@H](C)[C@H]2CCN(C(=O)c3ccc4c(c3)N(C[C@@H]3CC[C@H]31)C[C@@]1(CCCc3cc(Cl)ccc31)CO4)S2(=O)=O [Example 364, (1S,3′R,6′R,7′S,8′E,11′S,12′R)-6-chloro-7′-((9aS)-hexahydropyrazino[2,1-c][1,4]oxazin-8(1H)-ylmethyl)-7′-methoxy-11′-methyl-3,4-dihydro-2H,16′H-spiro[naphthalene-1,23′-[21]oxa[27]thia[1,15]diazapentacyclo[15.7.2.1˜12,15˜.0˜3,6˜.0˜20,25˜]heptacosa[8,17,19,25]tetraen]-16′-one 27′,27′-dioxide] | 192 | > 33.3 |
| CO[C@@]1(CN2CCN3CCOC[C@@H]3C2)/C=C/C[C@H](C)[C@@H](CCCl)S(=O)(=O)NC(=O)c2ccc3c(c2)N(C[C@@H]2CC[C@H]21)C[C@@]1(CCCc2cc(Cl)ccc21)CO3 [Example 366, (1S,3′R,6′R,7′S,8′E,11′S,12′R)-6-chloro-12′-(2-chloroethyl)-7′-((9aS)-hexahydropyrazino[2,1-c][1,4]oxazin-8(1H)-ylmethyl)-7′-methoxy-11′-methyl-3,4-dihydro-2H,15′H-spiro[naphthalene-1,22′-[20]oxa[13]thia[1,14]diazatetracyclo[14.7.2.0˜3,6˜.0˜19,24˜]pentacosa[8,16,18,24]tetraen]-15′-one 13′,13′-dioxide] | 0.248 | 0.133 |
| CO[C@]1(CN2CCN3CCCC[C@@H]3C2)/C=C/C[C@H](C)[C@@H](CCN(C)C)S(=O)(=O)NC(=O)c2ccc3c(c2)N(C[C@@H]2CC[C@H]21)C[C@@]1(CCCc2cc(Cl)ccc21)CO3 [Example 367, (1S,3′R,6′R,7′R,8′E,11′S,12′R)-6-chloro-12′-(2-(dimethylamino)ethyl)-7′-methoxy-11′-methyl-7′-((9aR)-octahydro-2H-pyrido[1,2-a]pyrazin-2-ylmethyl)-3,4-dihydro-2H,15′H-spiro[naphthalene-1,22′-[20]oxa[13]thia[1,14]diazatetracyclo[14.7.2.0˜3,6˜.0˜19,24˜]pentacosa[8,16,18,24]tetraen]-15′-one 13′,13′-dioxide] | 0.201 | 0.273 |
| CCO[C@]1(CN2CCN3CCOC[C@@H]3C2)CCC[C@H](C)[C@@H](CCOC)S(=O)(=O)NC(=O)c2ccc3c(c2)N(C[C@@H]2CC[C@H]21)C[C@@]1(CCCc2ccccc21)CO3 [Example 517, (1S,3′R,6′R,7′R,11′S,12′R)-7′-ethoxy-7′-((9aS)-hexahydropyrazino[2,1-c][1,4]oxazin-8(1H)-ylmethyl)-12′-(2-methoxyethyl)-11′-methyl-3,4-dihydro-2H,15′H-spiro[naphthalene-1,22′-[20]oxa[13]thia[1,14]diazatetracyclo[14.7.2.0˜3,6˜.0˜19,24˜]pentacosa[16,18,24]trien]-15′-one 13′,13′-dioxide] | 0.259 | 0.252 |
